Laboratory results from PubChem BioAssay (NCI).
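Dose response: 5 concentrations. Exposure: 48 h. Format: 96-well plates. Endpoint: linear interpolation; highest concentration if not reached. At the TGI there is no net growth.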

What was measured:
Test in all cases: DTP human tumour cell line panel, 48 h
786-0 renal = tested on: 786-0 renal
A498 renal = tested on: A498 renal
A549 NSCLC = tested on: A549 NSCLC
ACHN renal = tested on: ACHN renal
BT-549 breast = tested on: BT-549 breast
CAKI-1 renal = tested on: CAKI-1 renal
CCRF-CEM leukemia = tested on: CCRF-CEM leukemia
COLO 205 colon = tested on: COLO 205 colon
DU-145 prostate = tested on: DU-145 prostate
EKVX NSCLC = tested on: EKVX NSCLC
HCC-2998 colon = tested on: HCC-2998 colon
HCT-116 colon = tested on: HCT-116 colon
HCT-15 colon = tested on: HCT-15 colon
HL-60(TB) leukemia = tested on: HL-60(TB) leukemia
HOP-62 NSCLC = tested on: HOP-62 NSCLC
HOP-92 NSCLC = tested on: HOP-92 NSCLC
HS 578T breast = tested on: HS 578T breast
HT29 colon = tested on: HT29 colon
IGROV1 ovarian = tested on: IGROV1 ovarian
K-562 leukemia = tested on: K-562 leukemia
KM12 colon = tested on: KM12 colon
LOX IMVI melanoma = tested on: LOX IMVI melanoma
M14 melanoma = tested on: M14 melanoma
MALME-3M melanoma = tested on: MALME-3M melanoma
MCF7 breast = tested on: MCF7 breast
MDA-MB-231 breast = tested on: MDA-MB-231 breast
MDA-MB-435 = tested on: MDA-MB-435
MDA-N = tested on: MDA-N
MOLT-4 leukemia = tested on: MOLT-4 leukemia
NCI-H226 lung = tested on: NCI-H226 lung
NCI-H23 lung = tested on: NCI-H23 lung
NCI-H460 lung = tested on: NCI-H460 lung
NCI-H522 lung = tested on: NCI-H522 lung
NCI/ADR-RES ovarian = tested on: NCI/ADR-RES ovarian
OVCAR-3 ovarian = tested on: OVCAR-3 ovarian
OVCAR-4 ovarian = tested on: OVCAR-4 ovarian
OVCAR-5 ovarian = tested on: OVCAR-5 ovarian
OVCAR-8 ovarian = tested on: OVCAR-8 ovarian
PC-3 prostate = tested on: PC-3 prostate
RPMI-8226 leukemia = tested on: RPMI-8226 leukemia
RXF 393 renal = tested on: RXF 393 renal
SF-268 CNS = tested on: SF-268 CNS
SF-295 CNS = tested on: SF-295 CNS
SF-539 CNS = tested on: SF-539 CNS
SK-MEL-2 melanoma = tested on: SK-MEL-2 melanoma
SK-MEL-28 melanoma = tested on: SK-MEL-28 melanoma
SK-MEL-5 melanoma = tested on: SK-MEL-5 melanoma
SK-OV-3 ovarian = tested on: SK-OV-3 ovarian
SN12C renal = tested on: SN12C renal
SNB-19 CNS = tested on: SNB-19 CNS
SNB-75 CNS = tested on: SNB-75 CNS
SR leukemia = tested on: SR leukemia
SW-620 colon = tested on: SW-620 colon
T-47D breast = tested on: T-47D breast
TK-10 renal = tested on: TK-10 renal
U251 CNS = tested on: U251 CNS
UACC-257 melanoma = tested on: UACC-257 melanoma
UACC-62 melanoma = tested on: UACC-62 melanoma
UO-31 renal = tested on: UO-31 renal
DLD-1 colon = tested on: DLD-1 colon
HOP-18 NSCLC = tested on: HOP-18 NSCLC
KM20L2 colon = tested on: KM20L2 colon
LXFL 529 NSCLC = tested on: LXFL 529 NSCLC
M19-MEL melanoma = tested on: M19-MEL melanoma
SNB-78 CNS = tested on: SNB-78 CNS

Cc1cccc(/C=N/NC(=S)NC2CCCCC2)n1
TGI (786-0 renal): 98.3 µM
TGI (A498 renal): > 71.4 µM
TGI (A549 NSCLC): > 88.9 µM
TGI (ACHN renal): > 85.2 µM
TGI (BT-549 breast): > 100 µM
TGI (CAKI-1 renal): > 100 µM
TGI (CCRF-CEM leukemia): > 21.5 µM
TGI (COLO 205 colon): > 100 µM
TGI (DU-145 prostate): > 100 µM
TGI (EKVX NSCLC): > 100 µM
TGI (HCC-2998 colon): > 89.5 µM
TGI (HCT-116 colon): 19.4 µM
TGI (HCT-15 colon): > 100 µM
TGI (HL-60(TB) leukemia): > 44.5 µM
TGI (HOP-62 NSCLC): > 90.9 µM
TGI (HOP-92 NSCLC): 61.8 µM
TGI (HS 578T breast): > 100 µM
TGI (HT29 colon): 42.1 µM
TGI (IGROV1 ovarian): > 100 µM
TGI (K-562 leukemia): > 54.7 µM
TGI (KM12 colon): > 100 µM
TGI (LOX IMVI melanoma): 99 µM
TGI (M14 melanoma): 61.6 µM
TGI (MALME-3M melanoma): > 86.4 µM
TGI (MCF7 breast): > 100 µM
TGI (MDA-MB-231 breast): > 100 µM
TGI (MDA-MB-435): > 100 µM
TGI (MDA-N): > 93.1 µM
TGI (MOLT-4 leukemia): 13.9 µM
TGI (NCI-H226 lung): > 74.8 µM
TGI (NCI-H23 lung): > 100 µM
TGI (NCI-H460 lung): > 67.8 µM
TGI (NCI-H522 lung): > 64.3 µM
TGI (NCI/ADR-RES ovarian): > 67.1 µM
TGI (OVCAR-3 ovarian): > 29.3 µM
TGI (OVCAR-4 ovarian): > 100 µM
TGI (OVCAR-5 ovarian): > 100 µM
TGI (OVCAR-8 ovarian): > 69 µM
TGI (PC-3 prostate): > 100 µM
TGI (RPMI-8226 leukemia): 45.4 µM
TGI (RXF 393 renal): 76.1 µM
TGI (SF-268 CNS): > 100 µM
TGI (SF-295 CNS): > 100 µM
TGI (SF-539 CNS): 88.6 µM
TGI (SK-MEL-2 melanoma): > 100 µM
TGI (SK-MEL-28 melanoma): > 100 µM
TGI (SK-MEL-5 melanoma): > 100 µM
TGI (SK-OV-3 ovarian): > 100 µM
TGI (SN12C renal): > 100 µM
TGI (SNB-19 CNS): > 100 µM
TGI (SNB-75 CNS): > 100 µM
TGI (SR leukemia): > 78.3 µM
TGI (SW-620 colon): > 100 µM
TGI (T-47D breast): > 86.3 µM
TGI (TK-10 renal): > 100 µM
TGI (U251 CNS): > 87.8 µM
TGI (UACC-257 melanoma): > 84.5 µM
TGI (UACC-62 melanoma): 59.2 µM
TGI (UO-31 renal): > 89.5 µM

COC1C(=[N+]=[N-])C(=O)NC(=O)N1C1OC(COC(c2ccccc2)(c2ccccc2)c2ccccc2)C(O)C1O (configuration not stated)
TGI (A498 renal): 35.4 µM
TGI (A549 NSCLC): 31.9 µM
TGI (ACHN renal): 38.3 µM
TGI (CAKI-1 renal): 56.1 µM
TGI (CCRF-CEM leukemia): 41.6 µM
TGI (COLO 205 colon): 38 µM
TGI (DLD-1 colon): 37.3 µM
TGI (EKVX NSCLC): 35.9 µM
TGI (HCC-2998 colon): 32.8 µM
TGI (HCT-116 colon): 34.9 µM
TGI (HCT-15 colon): 36.8 µM
TGI (HL-60(TB) leukemia): 46.7 µM
TGI (HOP-18 NSCLC): 37.5 µM
TGI (HOP-62 NSCLC): 41.1 µM
TGI (HT29 colon): 35.3 µM
TGI (IGROV1 ovarian): 47.5 µM
TGI (K-562 leukemia): 49.4 µM
TGI (KM12 colon): 30.5 µM
TGI (KM20L2 colon): 31.1 µM
TGI (LOX IMVI melanoma): 30.1 µM
TGI (LXFL 529 NSCLC): 32.1 µM
TGI (M14 melanoma): 34.6 µM
TGI (M19-MEL melanoma): 39.5 µM
TGI (MALME-3M melanoma): 33.8 µM
TGI (MOLT-4 leukemia): 49.7 µM
TGI (NCI-H226 lung): 32.1 µM
TGI (NCI-H23 lung): 34.8 µM
TGI (NCI-H460 lung): 60.6 µM
TGI (NCI-H522 lung): 31 µM
TGI (OVCAR-3 ovarian): 32.9 µM
TGI (OVCAR-4 ovarian): 27.8 µM
TGI (OVCAR-5 ovarian): 31.7 µM
TGI (OVCAR-8 ovarian): 36.9 µM
TGI (RPMI-8226 leukemia): 61.8 µM
TGI (SF-268 CNS): 35.7 µM
TGI (SF-295 CNS): 37.4 µM
TGI (SF-539 CNS): 35.6 µM
TGI (SK-MEL-2 melanoma): 38.4 µM
TGI (SK-MEL-28 melanoma): 31.2 µM
TGI (SK-MEL-5 melanoma): 30 µM
TGI (SK-OV-3 ovarian): 49.6 µM
TGI (SN12C renal): 32.7 µM
TGI (SNB-19 CNS): 34 µM
TGI (SNB-75 CNS): 29.5 µM
TGI (SNB-78 CNS): 45.6 µM
TGI (SW-620 colon): 35.8 µM
TGI (U251 CNS): 35.5 µM
TGI (UACC-62 melanoma): 30.5 µM
TGI (UO-31 renal): 32.2 µM

Cc1cccc2c1CC(C1OC(=O)c3c(C)cccc31)C2=O (configuration not stated)
TGI (786-0 renal): > 100 µM
TGI (A498 renal): > 100 µM
TGI (A549 NSCLC): > 100 µM
TGI (ACHN renal): > 100 µM
TGI (BT-549 breast): > 100 µM
TGI (CAKI-1 renal): > 100 µM
TGI (CCRF-CEM leukemia): > 100 µM
TGI (COLO 205 colon): > 100 µM
TGI (DU-145 prostate): > 100 µM
TGI (EKVX NSCLC): > 100 µM
TGI (HCC-2998 colon): > 100 µM
TGI (HCT-116 colon): > 100 µM
TGI (HCT-15 colon): > 100 µM
TGI (HL-60(TB) leukemia): > 100 µM
TGI (HOP-62 NSCLC): > 100 µM
TGI (HOP-92 NSCLC): > 100 µM
TGI (HS 578T breast): > 100 µM
TGI (HT29 colon): > 100 µM
TGI (IGROV1 ovarian): > 100 µM
TGI (K-562 leukemia): > 100 µM
TGI (KM12 colon): > 100 µM
TGI (LOX IMVI melanoma): > 100 µM
TGI (M14 melanoma): > 100 µM
TGI (MALME-3M melanoma): > 100 µM
TGI (MCF7 breast): > 100 µM
TGI (MDA-MB-231 breast): > 100 µM
TGI (MDA-MB-435): > 100 µM
TGI (MDA-N): > 100 µM
TGI (MOLT-4 leukemia): > 100 µM
TGI (NCI-H226 lung): > 100 µM
TGI (NCI-H23 lung): > 100 µM
TGI (NCI-H460 lung): > 100 µM
TGI (NCI-H522 lung): > 100 µM
TGI (NCI/ADR-RES ovarian): > 100 µM
TGI (OVCAR-3 ovarian): > 100 µM
TGI (OVCAR-4 ovarian): > 100 µM
TGI (OVCAR-5 ovarian): > 100 µM
TGI (OVCAR-8 ovarian): > 100 µM
TGI (PC-3 prostate): > 100 µM
TGI (RPMI-8226 leukemia): > 100 µM
TGI (RXF 393 renal): > 100 µM
TGI (SF-268 CNS): > 100 µM
TGI (SF-295 CNS): > 100 µM
TGI (SF-539 CNS): > 100 µM
TGI (SK-MEL-2 melanoma): > 100 µM
TGI (SK-MEL-28 melanoma): > 100 µM
TGI (SK-MEL-5 melanoma): > 100 µM
TGI (SK-OV-3 ovarian): > 100 µM
TGI (SN12C renal): > 100 µM
TGI (SNB-19 CNS): > 100 µM
TGI (SNB-75 CNS): > 100 µM
TGI (SR leukemia): > 100 µM
TGI (SW-620 colon): > 100 µM
TGI (T-47D breast): > 100 µM
TGI (TK-10 renal): > 100 µM
TGI (U251 CNS): > 100 µM
TGI (UACC-257 melanoma): > 100 µM
TGI (UACC-62 melanoma): > 100 µM
TGI (UO-31 renal): > 100 µM
